{"source": "patent US8383637B2", "about": "“2-amino-quinazoline derivatives useful as inhibitors of β-secretase (BACE)” (Jansssen Pharmaceutica N.V., priority 2004, dated 2013)", "format_in_all_cases": "biochemical", "key": {"[1]": {"target": "T1, β-secretase(BACE) (Homo sapiens, UniProt P56817)", "T1 construct": "purchased Panvera", "T1 sequence (P56817 46-501)": "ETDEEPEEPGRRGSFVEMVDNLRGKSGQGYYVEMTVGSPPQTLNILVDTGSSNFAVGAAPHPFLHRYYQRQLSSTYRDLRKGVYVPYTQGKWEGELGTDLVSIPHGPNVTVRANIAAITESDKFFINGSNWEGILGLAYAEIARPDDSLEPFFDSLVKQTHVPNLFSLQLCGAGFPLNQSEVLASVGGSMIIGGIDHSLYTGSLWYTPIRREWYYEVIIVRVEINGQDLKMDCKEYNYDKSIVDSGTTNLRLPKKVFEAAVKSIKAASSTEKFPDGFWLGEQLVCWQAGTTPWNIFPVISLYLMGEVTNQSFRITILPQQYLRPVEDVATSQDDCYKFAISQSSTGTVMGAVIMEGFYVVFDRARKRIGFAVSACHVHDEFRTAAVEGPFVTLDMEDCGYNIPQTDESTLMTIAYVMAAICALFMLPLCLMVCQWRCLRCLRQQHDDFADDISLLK", "test": "BACE FS1% Inhibition Assay", "conditions": "FS1 substrate; for % Inhibition (FS) 0.3 μM / inhibition at 0.3 µM: 0.3 μM test compound; for inhibition at 0.3 µM: read-out: % Inhibition (FS) 0.3 μM; for % Inhibition (FS) 1 μM / inhibition at 1 µM: 1 μM test compound; for inhibition at 1 µM: read-out: % Inhibition (FS) 1 μM; for % Inhibition (FS) 3 μM / inhibition at 3 µM: 3 μM test compound; for inhibition at 3 µM: read-out: % Inhibition (FS) 3 μM", "method_in_brief": "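Human BACE (4 μg/mL working solution) preincubated 20 min at room temperature with compound, then FS1 substrate (300 μg/mL working solution) added and incubated 1 h at room temperature. Percent inhibition calculated at each compound concentration against blank and vehicle controls.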"}, "[2]": {"target": "T1, β-secretase(BACE)", "test": "BACE Assay-2 (FS1 substrate, IC50 and Ki)", "conditions": "procedure of Example 159, FS1 substrate; read-out: Ki μM (159)"}, "[3]": {"target": "T1, β-secretase(BACE)", "test": "BACE Assay-1 (MCA-substrate, IC50)", "conditions": "procedure of Example 158; read-out: IC50 μM (158)", "protocol": "The following standards are reagents were used in this assay: Sodium Citrate trisodium salt dihydrate (Sigma), Citric Acid monohydrate (Merck), PEG8000 (Sigma), MCA-substrate (Bachem), β-secretase (BACE) (Panvera), 96-well plate zwart (Costar (Elscolab)), StatVal (Bachem).\nThe following standard assay buffer solution was prepared and used in this assay: 0.05 M, pH 5.0 mixture of sodium citrate trisodium salt dihydrate (9.56 g), citric acid monohydrate (3.68 g) and PEG8000 (0.50 g).\nThe MCA-substrate stock solution was prepared by mixing 10 mg MCA-substrate with 5 mL DMSO for a final solution concentration of 2.0 mg/mL. The substrate work solution was prepared by mixing 0.1 mL substrate in 1.90 mL assay buffer for a final concentration of 0.05 mM. The β-secretase (BACE) work solution was prepared by mixing 8 μL BACE in 2 mL assay buffer for a final concentration of 10 μg/mL.\nThe screen procedure for this assay was as follows. 60 μL of assay buffer was pippeted into each well of a 96-well plate. To each well was then pipetted 1 μL of test compound at the selected concentration. To each well was then added 20 μL of the β-secretase work solution and 20 μL of the MCA-substrate stock solution.\nThe procedure for the blank was as follows. 80 μL of assay buffer was pipetted into each well to be used as a blank control. To each well was then added 1 μL of DMSO and 20 μL of MCA-substrate solution in each well.\nThe procedure for the positive control was as follows. 60 μL of assay buffer was pipetted into each well to be used as a positive control. To each well was then added 1 μL of DMSO, 20 μL of BACE work solution and 20 μL of MCA-substrate stock solution.\nFor test compounds, measured at multiple concentrations, the measured T0 and T60 values were used to calculate an IC50 value using Graphpad Software (or PIR)."}}, "note": "Where “and” joins values, the source holds several entries; their conditions need not be identical. Equal values may be shown once.", "data": [{"smiles": "COc1ccccc1-c1ccc2c(c1)CN(Cc1cccc(C(=O)N(C)C3CCCCC3)c1)C(N)=N2", "note": "[Compound 167, 3-[2-Amino-6-(2-methoxy-phenyl)-4H-quinazolin-3-ylmethyl]-N-cyclohexyl-N-methyl-benzamide]", "values": [{"measurement": "% Inhibition (FS) 0.3 μM", "setting": "[1]; 0.3 µM", "value": 91, "unit": "%"}, {"measurement": "inhibition at 0.3 µM", "setting": "[1]", "value": 100, "unit": "%"}, {"measurement": "% Inhibition (FS) 1 μM", "setting": "[1]; 1 µM", "value": 110, "unit": "%"}, {"measurement": "inhibition at 1 µM", "setting": "[1]", "value": 112, "unit": "%"}, {"measurement": "% Inhibition (FS) 3 μM", "setting": "[1]; 3 µM", "value": 118, "unit": "%"}, {"measurement": "inhibition at 3 µM", "setting": "[1]", "value": 113, "unit": "%"}, {"measurement": "Ki", "setting": "[2]", "value": "0.03 µM and 0.05 µM"}, {"measurement": "IC50", "setting": "[3]", "value": 0.014, "unit": "µM"}]}, {"smiles": "NC1=Nc2ccc(Oc3ccccc3)cc2CN1CCNC(=O)NC12CC3CC(CC(C3)C1)C2", "note": "[Compound 206, 1-Adamantan-1-yl-3-[2-(2-amino-6-phenoxy-4H-quinazolin-3-yl)-ethyl]-urea]", "values": [{"measurement": "inhibition at 0.3 µM", "setting": "[1]", "value": "< 30", "unit": "%"}, {"measurement": "inhibition at 1 µM", "setting": "[1]", "value": 62, "unit": "%"}, {"measurement": "inhibition at 3 µM", "setting": "[1]", "value": 106, "unit": "%"}, {"measurement": "Ki", "setting": "[2]", "value": 0.27, "unit": "µM"}, {"measurement": "IC50", "setting": "[3]", "value": 0.078, "unit": "µM"}]}, {"smiles": "CN(C(=O)c1cccc(CN2Cc3cc(-c4cccc5ccccc45)ccc3N=C2N)c1)C1CCCCC1", "note": "[Compound 330]", "values": [{"measurement": "inhibition at 0.3 µM", "setting": "[1]", "value": "< 30", "unit": "%"}, {"measurement": "inhibition at 1 µM", "setting": "[1]", "value": 66, "unit": "%"}, {"measurement": "inhibition at 3 µM", "setting": "[1]", "value": 114, "unit": "%"}, {"measurement": "Ki", "setting": "[2]", "value": 0.21, "unit": "µM"}, {"measurement": "IC50", "setting": "[3]", "value": 0.048, "unit": "µM"}]}, {"smiles": "CN(C(=O)c1cccc(CN2Cc3cc(-c4ccccc4CC#N)ccc3N=C2N)c1)C1CCCCC1", "note": "[Compound 325]", "values": [{"measurement": "inhibition at 0.3 µM", "setting": "[1]", "value": "< 30", "unit": "%"}, {"measurement": "inhibition at 1 µM", "setting": "[1]", "value": 86, "unit": "%"}, {"measurement": "inhibition at 3 µM", "setting": "[1]", "value": 110, "unit": "%"}, {"measurement": "Ki", "setting": "[2]", "value": 0.1, "unit": "µM"}, {"measurement": "IC50", "setting": "[3]", "value": 0.089, "unit": "µM"}]}, {"smiles": "CN(CCN1Cc2cc(Oc3ccccc3)ccc2N=C1N)C(=O)OC(C)(C)C", "note": "[Compound 425, [2-(2-Amino-6-phenoxy-4H-quinazolin-3-yl)-ethyl]-methyl-carbamic acid tert-butyl ester]", "values": [{"measurement": "inhibition at 0.3 µM", "setting": "[1]", "value": 46, "unit": "%"}, {"measurement": "inhibition at 1 µM", "setting": "[1]", "value": 85, "unit": "%"}, {"measurement": "inhibition at 3 µM", "setting": "[1]", "value": 111, "unit": "%"}, {"measurement": "Ki", "setting": "[2]", "value": 0.074, "unit": "µM"}, {"measurement": "IC50", "setting": "[3]", "value": 0.14, "unit": "µM"}]}, {"smiles": "CN(C(=O)c1cccc(CN2Cc3cc(-c4ccccc4)ccc3N=C2N)c1)C1CCCCC1", "note": "[Compound 138]", "values": [{"measurement": "inhibition at 0.3 µM", "setting": "[1]", "value": 98, "unit": "%"}, {"measurement": "inhibition at 1 µM", "setting": "[1]", "value": 113, "unit": "%"}, {"measurement": "inhibition at 3 µM", "setting": "[1]", "value": 114, "unit": "%"}, {"measurement": "Ki", "setting": "[2]", "value": 0.06, "unit": "µM"}, {"measurement": "IC50", "setting": "[3]", "value": 0.023, "unit": "µM"}]}, {"smiles": "NC1=Nc2ccc(Oc3ccccc3)cc2CN1CCNC(=S)NC12CC3CC(CC(C3)C1)C2", "note": "[Compound 214, 1-Adamantan-1-yl-3-[2-(2-amino-6-phenoxy-4H-quinazolin-3-yl)-ethyl]-thiourea]", "values": [{"measurement": "inhibition at 0.3 µM", "setting": "[1]", "value": "< 30", "unit": "%"}, {"measurement": "inhibition at 1 µM", "setting": "[1]", "value": 70, "unit": "%"}, {"measurement": "inhibition at 3 µM", "setting": "[1]", "value": 101, "unit": "%"}, {"measurement": "Ki", "setting": "[2]", "value": 0.1, "unit": "µM"}, {"measurement": "IC50", "setting": "[3]", "value": 0.19, "unit": "µM"}]}, {"smiles": "CC(C)(C)OC(=O)NCC(c1ccccc1)N1Cc2cc(Oc3ccccc3)ccc2N=C1N", "note": "(stereo not shown) [Compound 258]", "values": [{"measurement": "% Inhibition (FS) 0.3 μM", "setting": "[1]", "value": "<30", "unit": "%"}, {"measurement": "% Inhibition (FS) 1 μM", "setting": "[1]", "value": 46, "unit": "%"}, {"measurement": "% Inhibition (FS) 3 μM", "setting": "[1]", "value": 72, "unit": "%"}, {"measurement": "Ki", "setting": "[2]", "value": 0.33, "unit": "µM"}, {"measurement": "IC50", "setting": "[3]", "value": 0.39, "unit": "µM"}]}, {"smiles": "CCCCC(CC)C(=O)NCCN1Cc2cc(Oc3ccccc3)ccc2N=C1N", "note": "(stereo not shown) [Compound 122]", "values": [{"measurement": "inhibition at 3 µM", "setting": "[1]", "value": 101, "unit": "%"}, {"measurement": "inhibition at 10 µM", "setting": "[1]; 10 μM test compound, read-out: % Inhibition (FS) 10 μM", "value": 123, "unit": "%"}, {"measurement": "Ki", "setting": "[2]", "value": 0.17, "unit": "µM"}, {"measurement": "IC50", "setting": "[3]", "value": 0.19, "unit": "µM"}]}, {"smiles": "CN(C(=O)CCC(c1ccc(Cl)cc1)N1Cc2cc(Oc3ccccc3)ccc2N=C1N)C1CCCCC1", "note": "(stereo not shown) [Compound 297]", "values": [{"measurement": "inhibition at 0.3 µM", "setting": "[1]", "value": "< 30", "unit": "%"}, {"measurement": "inhibition at 1 µM", "setting": "[1]", "value": 76, "unit": "%"}, {"measurement": "inhibition at 3 µM", "setting": "[1]", "value": 109, "unit": "%"}, {"measurement": "Ki", "setting": "[2]", "value": 0.12, "unit": "µM"}, {"measurement": "IC50", "setting": "[3]", "value": 0.066, "unit": "µM"}]}, {"smiles": "NC1=Nc2ccc(Oc3ccccc3)cc2CN1C(CNC(=O)CC1CCCC1)C1CCCCC1", "note": "(stereo not shown) [Compound 311]", "values": [{"measurement": "% Inhibition (FS) 0.3 μM", "setting": "[1]", "value": 74, "unit": "%"}, {"measurement": "% Inhibition (FS) 1 μM", "setting": "[1]", "value": 108, "unit": "%"}, {"measurement": "% Inhibition (FS) 3 μM", "setting": "[1]", "value": 118, "unit": "%"}, {"measurement": "Ki", "setting": "[2]", "value": 0.05, "unit": "µM"}, {"measurement": "IC50", "setting": "[3]", "value": 0.02, "unit": "µM"}]}, {"smiles": "COc1ccccc1-c1ccc2c(c1)CN(CCNC(=O)C1CCCCC1)C(N)=N2", "note": "[Compound 487]", "values": [{"measurement": "% Inhibition (FS) 0.3 μM", "setting": "[1]; 0.3 µM", "value": "<30", "unit": "%"}, {"measurement": "inhibition at 0.3 µM", "setting": "[1]", "value": 38, "unit": "%"}, {"measurement": "% Inhibition (FS) 1 μM", "setting": "[1]; 1 µM", "value": 32, "unit": "%"}, {"measurement": "inhibition at 1 µM", "setting": "[1]", "value": 44, "unit": "%"}, {"measurement": "% Inhibition (FS) 3 μM", "setting": "[1]; 3 µM", "value": 95, "unit": "%"}, {"measurement": "inhibition at 3 µM", "setting": "[1]", "value": 93, "unit": "%"}, {"measurement": "Ki", "setting": "[2]", "value": 0.26, "unit": "µM"}, {"measurement": "IC50", "setting": "[3]", "value": 0.36, "unit": "µM"}]}, {"smiles": "CCOc1ccccc1-c1ccc2c(c1)CN(Cc1cccc(C(=O)N(C)C3CCCCC3)c1)C(N)=N2", "note": "[Compound 329]", "values": [{"measurement": "inhibition at 0.3 µM", "setting": "[1]", "value": 92, "unit": "%"}, {"measurement": "inhibition at 1 µM", "setting": "[1]", "value": 109, "unit": "%"}, {"measurement": "inhibition at 3 µM", "setting": "[1]", "value": 118, "unit": "%"}, {"measurement": "Ki", "setting": "[2]", "value": 0.02, "unit": "µM"}, {"measurement": "IC50", "setting": "[3]", "value": 0.012, "unit": "µM"}]}]}
